In patent US20220162191A1, “SMALL MOLECULE MODULATORS OF IL-17” (LEO PHARMA A/S, priority 2019, published 2022):

molecular target: T1, human IL-17AA (Homo sapiens, UniProt Q16552); assay: IL-8 release assay in human epithelial keratinocytes adult (HEKa); type: cell-based; conditions: 3 ng/ml human IL-17AA + 10 ng/ml human TNFalpha, 68-72 h, IL-8 by HTRF, read-out: Rel EC50 L-8 release assay
T1 construct: host or cells: HEK (human embryonic kidney) cells
T1 sequence (Q16552 24-155) 1: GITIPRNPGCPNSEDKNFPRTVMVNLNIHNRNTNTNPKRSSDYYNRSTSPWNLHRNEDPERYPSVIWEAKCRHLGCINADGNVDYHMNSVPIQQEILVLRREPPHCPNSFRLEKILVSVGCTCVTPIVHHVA
T1 sequence (Q16552 24-155) 2: T1 sequence (Q16552 24-155) 1
Procedure, shortened: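 Adult human keratinocytes in Epilife with HKGS minus hydrocortisone, treated with compound then stimulated with final 3 ng/ml HEK-derived human IL-17AA plus 10 ng/ml TNF-alpha for 68–72 h at 37 °C; TNF-alpha alone defines 100% inhibition. Secreted IL-8 by HTRF; relative IC50 and Emax from four-parameter fits.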

`Cc1nocc1-c1ccc(NC(=O)C(Cc2cc(-c3ccc(=O)n(C(C)C)c3)ccc2Cl)NC(=O)c2ccnn2C)cc1` (stereo not drawn) [Example 78, N-[1-[[2-chloro-5-(1-isopropyl-6-oxo-3-pyridyl)phenyl]methyl]-2-[4-(3-methylisoxazol-4-yl)anilino]-2-oxo-ethyl]-2-methyl-pyrazole-3-carboxamide] was tested. Which EC50 did it give?
Its EC50 is 0.1 to 1 µM.

`CC(C)n1cc(-c2ccc(Cl)c(CC(NC(=O)c3ccnn3C)C(=O)Nc3ccc(-c4cncn4C)cc3)c2)ccc1=O` (stereo not drawn) [Example 79, N-[1-[[2-chloro-5-(1-isopropyl-6-oxo-3-pyridyl)phenyl]methyl]-2-[4-(3-methylimidazol-4-yl)anilino]-2-oxo-ethyl]-2-methyl-pyrazole-3-carboxamide] was tested. Which EC50 did it give?
Its EC50 is 0.1 to 1 µM.

`Cc1nocc1C(=O)NC(Cc1cc(-c2ccc(=O)n(C(C)C)c2)ccc1Cl)C(=O)Nc1ccc(-c2cn[nH]c2)cc1` (stereo not drawn) [Example 80, N-[1-[[2-chloro-5-(1-isopropyl-6-oxo-3-pyridyl)phenyl]methyl]-2-oxo-2-[4-(1H-pyrazol-4-yl)anilino]ethyl]-3-methyl-isoxazole-4-carboxamide] was tested. Which EC50 did it give?
Its EC50 is 0.1 to 1 µM.

`Cc1nocc1C(=O)N[C@@H](Cc1cc(-c2ccnc(C(O)C(C)(C)C)c2)ccc1Cl)C(=O)Nc1ccc(-c2nncn2C)cc1` (stereo partly drawn) [Example 81, N-[(1S)-1-[[2-chloro-5-[2-(1-hydroxy-2,2-dimethyl-propyl)-4-pyridyl]phenyl]methyl]-2-[4-(4-methyl-1,2,4-triazol-3-yl)anilino]-2-oxo-ethyl]-3-methyl-isoxazole-4-carboxamide] was tested. Which EC50 did it give?
Its EC50 is 0.1 to 1 µM.

For `Cc1nocc1C(=O)N[C@@H](Cc1cc(-c2ccnc(C(O)C(C)C)c2)ccc1Cl)C(=O)Nc1ccc(-c2nncn2C)cc1` (stereo partly drawn) [Example 82, N-[(1S)-1-[[2-chloro-5-[2-(1-hydroxy-2-methyl-propyl)-4-pyridyl]phenyl]methyl]-2-[4-(4-methyl-1,2,4-triazol-3-yl)anilino]-2-oxo-ethyl]-3-methyl-isoxazole-4-carboxamide], which EC50 is on record?
The EC50 was 0.1 to 1 µM.

With `CC(C)n1cc(-c2ccc(Cl)c(CC(NC(=O)c3ccnn3C)C(=O)Nc3ccc(-c4cnn[nH]4)cc3)c2)ccc1=O` (stereo not drawn) [Example 83, N-[1-[[2-chloro-5-(1-isopropyl-6-oxo-3-pyridyl)phenyl]methyl]-2-oxo-2-[4-(1H-triazol-5-yl)anilino]ethyl]-2-methyl-pyrazole-3-carboxamide] as the molecule, how does the EC50 read?
Its EC50 is 0.1 to 1 µM.

How did the EC50 turn out when `Cc1nocc1C(=O)N[C@@H](Cc1cc(-c2ccnc(C(=O)C(C)(C)C)c2)ccc1Cl)C(=O)Nc1ccc(-c2nncn2C)cc1` [Example 84, N-[(1S)-1-[[2-chloro-5-[2-(2,2-dimethylpropanoyl)-4-pyridyl]phenyl]methyl]-2-[4-(4-methyl-1,2,4-triazol-3-yl)anilino]-2-oxo-ethyl]-3-methyl-isoxazole-4-carboxamide] was run?
The EC50 was 0.1 to 1 µM.

`Cc1nocc1C(=O)N[C@@H](Cc1cc(-c2ccnc(C(=O)C3CC3)c2)ccc1Cl)C(=O)Nc1ccc(-c2nncn2C)cc1` [Example 85, N-[(1S)-1-[[2-chloro-5-[2-(cyclopropanecarbonyl)-4-pyridyl]phenyl]methyl]-2-[4-(4-methyl-1,2,4-triazol-3-yl)anilino]-2-oxo-ethyl]-3-methyl-isoxazole-4-carboxamide] was tested. Which EC50 did it give?
The EC50 was > 1 µM.

`CC(C)n1cc(-c2ccc(Cl)c(C[C@H](NC(=O)OC(C)(C)C)C(=O)Nc3ccc(-c4nncn4C)cc3)c2)ccc1=O` [Example 86, tert-butyl N-[(1S)-1-[[2-chloro-5-(1-isopropyl-6-oxo-3-pyridyl)phenyl]methyl]-2-[4-(4-methyl-1,2,4-triazol-3-yl)anilino]-2-oxo-ethyl]carbamate] was tested. Which EC50 did it give?
Its EC50 is > 1 µM.

How did the EC50 turn out when `CC(C)n1cc(-c2ccc(Cl)c(C[C@H](NC(=O)OCc3ccccc3)C(=O)Nc3ccc(-c4nncn4C)cc3)c2)ccc1=O` [Example 87, benzyl N-[(1S)-1-[[2-chloro-5-(1-isopropyl-6-oxo-3-pyridyl)phenyl]methyl]-2-[4-(4-methyl-1,2,4-triazol-3-yl)anilino]-2-oxo-ethyl]carbamate] was run?
The EC50 was 0.1 to 1 µM.

With `Cc1ncnn1-c1ccc(NC(=O)C(Cc2cc(-c3ccc(=O)n(C(C)C)c3)ccc2Cl)NC(=O)c2ccnn2C)cc1` (stereo not drawn) [Example 88, N-[1-[[2-chloro-5-(1-isopropyl-6-oxo-3-pyridyl)phenyl]methyl]-2-[4-(5-methyl-1,2,4-triazol-1-yl)anilino]-2-oxo-ethyl]-2-methyl-pyrazole-3-carboxamide] as the molecule, how does the EC50 read?
Its EC50 is > 1 µM.

`Cc1[nH]ncc1-c1ccc(NC(=O)C(Cc2cc(-c3ccc(=O)n(C(C)C)c3)ccc2Cl)NC(=O)c2ccnn2C)cc1` (stereo not drawn) [Example 89, N-[1-[[2-chloro-5-(1-isopropyl-6-oxo-3-pyridyl)phenyl]methyl]-2-[4-(5-methyl-1H-pyrazol-4-yl)anilino]-2-oxo-ethyl]-2-methyl-pyrazole-3-carboxamide] was tested. Which EC50 did it give?
The EC50 was 0.1 to 1 µM.

With `Cc1[nH]ncc1-c1ccc(NC(=O)C(Cc2cc(-c3ccc(=O)n(C(C)C)c3)ccc2Cl)NC(=O)OC(C)(C)C)cc1` (stereo not drawn) [Example 90, tert-butyl N-[1-[[2-chloro-5-(1-isopropyl-6-oxo-3-pyridyl)phenyl]methyl]-2-[4-(5-methyl-1H-pyrazol-4-yl)anilino]-2-oxo-ethyl]carbamate] as the molecule, how does the EC50 read?
The EC50 was 0.1 to 1 µM.

For `CC(C)n1nccc1C(=O)N[C@@H](Cc1cc(-c2ccc(=O)n(C(C)C)c2)ccc1Cl)C(=O)Nc1ccc(-c2nncn2C)cc1` [Example 91, N-[(1S)-1-[[2-chloro-5-(1-isopropyl-6-oxo-3-pyridyl)phenyl]methyl]-2-[4-(4-methyl-1,2,4-triazol-3-yl)anilino]-2-oxo-ethyl]-2-isopropyl-pyrazole-3-carboxamide], which EC50 is on record?
Its EC50 is 0.1 to 1 µM.

Which EC50 does the source give for `CC(C)n1cc(-c2ccc(Cl)c(C[C@H](NC(=O)C3(F)CC3)C(=O)Nc3ccc(-c4nncn4C)cc3)c2)ccc1=O` [Example 92, N-[(1S)-1-[[2-chloro-5-(1-isopropyl-6-oxo-3-pyridyl)phenyl]methyl]-2-[4-(4-methyl-1,2,4-triazol-3-yl)anilino]-2-oxo-ethyl]-1-fluoro-cyclopropanecarboxamide] here?
Its EC50 is > 1 µM.

With `Cc1noc(C)c1-c1ccc(NC(=O)C(Cc2cc(-c3ccc(=O)n(C(C)C)c3)ccc2Cl)NC(=O)c2ccnn2C)cc1` (stereo not drawn) [Example 93, N-[1-[[2-chloro-5-(1-isopropyl-6-oxo-3-pyridyl)phenyl]methyl]-2-[4-(3,5-dimethylisoxazol-4-yl)anilino]-2-oxo-ethyl]-2-methyl-pyrazole-3-carboxamide] as the molecule, how does the EC50 read?
The EC50 was 0.1 to 1 µM.

How did the EC50 turn out when `Cc1n[nH]c(C)c1-c1ccc(NC(=O)C(Cc2cc(-c3ccc(=O)n(C(C)C)c3)ccc2Cl)NC(=O)c2ccnn2C)cc1` (stereo not drawn) [Example 94, N-[1-[[2-chloro-5-(1-isopropyl-6-oxo-3-pyridyl)phenyl]methyl]-2-[4-(3,5-dimethyl-1H-pyrazol-4-yl)anilino]-2-oxo-ethyl]-2-methyl-pyrazole-3-carboxamide] was run?
The EC50 was < 0.1 µM.

How did the EC50 turn out when `CC(C)n1cc(-c2ccc(Cl)c(CC(NC(=O)c3conc3C(F)(F)F)C(=O)Nc3ccc(-c4nncn4C)cc3)c2)ccc1=O` (stereo not drawn) [Example 95, N-[1-[[2-chloro-5-(1-isopropyl-6-oxo-3-pyridyl)phenyl]methyl]-2-[4-(4-methyl-1,2,4-triazol-3-yl)anilino]-2-oxo-ethyl]-3-(trifluoromethyl)isoxazole-4-carboxamide] was run?
Its EC50 is > 1 µM.
